Data from PubChem BioAssay AID248 (DTP/NCI, 2004).
Toxic doses and inconclusive results are not listed. Cut-off read from the data, not from the text of the source: active = T/C of 150% or more; inactive = T/C below 125%.

System: L1210 leukemia ip in BDF1 mice, survival T/C
Assay: NCI In Vivo Anticancer Drug Screen. Data for tumor model L1210 Leukemia (intraperitoneal) in B6D2F1 (BDF1) mice
Settings: endpoint: mean survival time, higher = longer survival
Outline: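 Ratio derived from survival: compound-dosed mice over vehicle-dosed mice, all bearing a transplantable tumor.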

[1] = dose: 50.0 mg/kg/injection, schedule: Q01DX001 (ip), vehicle: carboxymethylcellulose (CMC)
[2] = dose: 100.0 mg/kg/injection, schedule: Q01DX001 (ip), vehicle: carboxymethylcellulose (CMC)
[3] = dose: 100.0 mg/kg/injection, schedule: Q04DX003 (ip), vehicle: Klucel (hydroxypropylcellulose) (HPC)
[4] = dose: 200.0 mg/kg/injection, schedule: Q01DX001 (ip), vehicle: carboxymethylcellulose (CMC)
[5] = dose: 200.0 mg/kg/injection, schedule: Q04DX003 (ip), vehicle: Klucel (hydroxypropylcellulose) (HPC)
[6] = dose: 400.0 mg/kg/injection, schedule: Q01DX001 (ip), vehicle: carboxymethylcellulose (CMC)
[7] = dose: 400.0 mg/kg/injection, schedule: Q04DX003 (ip), vehicle: Klucel (hydroxypropylcellulose) (HPC)
[8] = dose: 12.5 mg/kg/injection, schedule: Q01DX009 (ip), vehicle: Klucel (hydroxypropylcellulose) (HPC)
[9] = dose: 25.0 mg/kg/injection, schedule: Q01DX009 (ip), vehicle: Klucel (hydroxypropylcellulose) (HPC)
[10] = dose: 100.0 mg/kg/injection, schedule: Q01DX001 (ip), vehicle: saline with Tween-80
[11] = dose: 200.0 mg/kg/injection, schedule: Q01DX001 (ip), vehicle: saline with Tween-80
[12] = dose: 100.0 mg/kg/injection, schedule: Q01DX009 (ip), vehicle: saline with Tween-80
[13] = dose: 200.0 mg/kg/injection, schedule: Q01DX009 (ip), vehicle: saline with Tween-80
[14] = dose: 50.0 mg/kg/injection, schedule: Q01DX009 (ip), vehicle: saline with Tween-80
[15] = dose: 25.0 mg/kg/injection, schedule: Q04DX003 (ip), vehicle: saline with Tween-80
[16] = dose: 100.0 mg/kg/injection, schedule: Q04DX003 (ip), vehicle: saline with Tween-80
[17] = dose: 100.0 mg/kg/injection, schedule: Q04DX002 (ip), vehicle: saline with Tween-80
[18] = dose: 200.0 mg/kg/injection, schedule: Q04DX002 (ip), vehicle: saline with Tween-80
[19] = dose: 400.0 mg/kg/injection, schedule: Q04DX002 (ip), vehicle: saline with Tween-80
[20] = dose: 100.0 mg/kg/injection, schedule: Q01DX009 (ip), vehicle: Klucel (hydroxypropylcellulose) (HPC)
[21] = dose: 200.0 mg/kg/injection, schedule: Q01DX009 (ip), vehicle: Klucel (hydroxypropylcellulose) (HPC)
[22] = dose: 400.0 mg/kg/injection, schedule: Q01DX009 (ip), vehicle: Klucel (hydroxypropylcellulose) (HPC)

Measured: T/C

Cc1cc(N(CCCl)CCCl)ccc1CN1CCCN(Cc2ccc(N(CCCl)CCCl)cc2C)C1c1ccccc1O
inactive: [1] 106 % of control | [2] 103 % of control | [3] 117 % of control | [4] 103 % of control | [5] 110 % of control | [6] 103 % of control | [7] 122 % of control

NC(CSS(=O)(=O)O)=NCc1ccsc1
inactive: dose: 6.25 mg/kg/injection, schedule: Q01DX009 (ip), vehicle: Klucel (hydroxypropylcellulose) (HPC) 96 % of control | [8] 104 % of control | dose: 12.5 mg/kg/injection, schedule: Q04DX002 (ip), vehicle: Klucel (hydroxypropylcellulose) (HPC) 100 % of control | [9] 101 % of control | dose: 25.0 mg/kg/injection, schedule: Q04DX002 (ip), vehicle: Klucel (hydroxypropylcellulose) (HPC) 95 % of control

O=[N+]([O-])c1ccc(-c2cccc3ccccc23)c([N+](=O)[O-])c1
inactive: [2] 96 % of control | [6] 91 % of control

Clc1ccc(Sc2ccc(Br)cc2)cc1
inactive: [1] 103 % of control | [2] 101 % of control | [4] 103 % of control | [6] 101 % of control

CCCCCCCCCCCCC(CCCCCCCCCCC)CCCCCCCCCCCC
inactive: [10] 97 % of control | [11] 97 % of control | dose: 400.0 mg/kg/injection, schedule: Q01DX001 (ip), vehicle: saline with Tween-80 96 % of control

COC1(OC)C(Cl)=C(Cl)C2C1C1(Cl)C(Cl)=C(Cl)C2(Cl)C1(OC)OC (configuration not stated)
inactive: [12] 98 % of control | [13] 98 % of control | dose: 400.0 mg/kg/injection, schedule: Q01DX009 (ip), vehicle: saline with Tween-80 96 % of control

Cn1c(/C=C/c2ccccc2)c([N+](=O)[O-])c(=O)n(C)c1=O
inactive: [14] 106 % of control | [12] 98 % of control | [13] 98 % of control

CC1C(O)CC2CC1C2(C)C (configuration not stated)
inactive: dose: 50.0 mg/kg/injection, schedule: Q01DX001 (ip), vehicle: saline with Tween-80 94 % of control | [10] 93 % of control | [11] 102 % of control

CCCCCCCCCCCCCCCCNC(=O)c1cc([N+](=O)[O-])ccc1C(=O)O
inactive: [3] 95 % of control | [5] 95 % of control | [7] 97 % of control

CCCCCCCCCCCCCCCCCC1=NCC[N+]1(CCO)Cc1ccccc1 (configuration not stated) (tested in a mixture with another compound)
inactive: dose: 12.5 mg/kg/injection, schedule: Q04DX003 (ip), vehicle: saline with Tween-80 98 % of control | [15] 101 % of control

C[n+]1ccc(/C=C/c2ccc(Cl)c(Cl)c2)cc1
inactive: dose: 3.0 mg/kg/injection, schedule: Q01DX009 (ip), vehicle: Klucel (hydroxypropylcellulose) (HPC) 105 % of control | dose: 6.0 mg/kg/injection, schedule: Q01DX009 (ip), vehicle: Klucel (hydroxypropylcellulose) (HPC) 93 % of control | dose: 12.0 mg/kg/injection, schedule: Q01DX009 (ip), vehicle: Klucel (hydroxypropylcellulose) (HPC) 93 % of control | dose: 12.5 mg/kg/injection, schedule: Q04DX003 (ip), vehicle: Klucel (hydroxypropylcellulose) (HPC) 104 % of control

C[N+]1(C)OCC2CCCC(c3ccccc3)C21 (configuration not stated)
inactive: dose: 12.5 mg/kg/injection, schedule: Q01DX001 (ip), vehicle: saline 104 % of control | dose: 25.0 mg/kg/injection, schedule: Q01DX001 (ip), vehicle: saline 102 % of control | dose: 50.0 mg/kg/injection, schedule: Q01DX001 (ip), vehicle: saline 98 % of control

CN(C)Cc1c(C(O)(c2ccccc2)c2ccccc2)cc2ccccc2c1Cl
inactive: [1] 94 % of control | [2] 94 % of control | [4] 102 % of control | [6] 96 % of control

Cc1ccc(SCCN=C(N)CSS(=O)(=O)O)cc1
inactive: [8] 94 % of control | [9] 107 % of control | dose: 100.0 mg/kg/injection, schedule: Q04DX002 (ip), vehicle: Klucel (hydroxypropylcellulose) (HPC) 92 % of control | dose: 200.0 mg/kg/injection, schedule: Q04DX002 (ip), vehicle: Klucel (hydroxypropylcellulose) (HPC) 101 % of control | dose: 400.0 mg/kg/injection, schedule: Q04DX002 (ip), vehicle: Klucel (hydroxypropylcellulose) (HPC) 92 % of control

O=C1C[N+]2(CCCCC2)c2ccc(Cl)cc2N1
inactive: dose: 6.25 mg/kg/injection, schedule: Q01DX009 (ip), vehicle: saline 87 % of control | dose: 6.25 mg/kg/injection, schedule: Q04DX003 (ip), vehicle: saline 91 % of control | dose: 12.5 mg/kg/injection, schedule: Q01DX009 (ip), vehicle: saline 92 % of control | dose: 12.5 mg/kg/injection, schedule: Q04DX003 (ip), vehicle: saline 91 % of control | dose: 25.0 mg/kg/injection, schedule: Q01DX009 (ip), vehicle: saline 95 % of control | dose: 25.0 mg/kg/injection, schedule: Q04DX003 (ip), vehicle: saline 93 % of control

COc1cccn(C/C=C(\C)CCC=C(C)C)c1=O
inactive: dose: 25.0 mg/kg/injection, schedule: Q01DX009 (ip), vehicle: saline with Tween-80 104 % of control | [15] 99 % of control | [14] 94 % of control | dose: 50.0 mg/kg/injection, schedule: Q04DX003 (ip), vehicle: saline with Tween-80 97 % of control | [12] 90 % of control | [16] 91 % of control

Cc1c(Cl)cccc1NS(=O)(=O)c1cccc([N+](=O)[O-])c1
inactive: [12] 90 % of control | [13] 87 % of control

c1cc2c(c3c1CCCC3)CCC1CCCCC21 (configuration not stated)
inactive: [2] 103 % of control | [4] 95 % of control | [6] 97 % of control

CC(NNC(c1ccccc1)(c1ccccc1)c1ccccc1)c1ccccc1I (configuration not stated)
inactive: [17] 93 % of control | [18] 95 % of control | [19] 97 % of control

O=C(c1cccnc1)c1cccnc1
inactive: [3] 91 % of control | [5] 100 % of control | [7] 97 % of control

CCN(CC)CCC(=O)Nc1cccc2c1C(=O)c1c(c(O)c3ccccc3c1O)C2=O
inactive: [14] 105 % of control | [12] 91 % of control | [16] 105 % of control | dose: 200.0 mg/kg/injection, schedule: Q04DX003 (ip), vehicle: saline with Tween-80 90 % of control

COC(=O)C(c1ccccc1)C(Br)C(=O)c1ccc(Cl)cc1 (configuration not stated)
inactive: [20] 92 % of control | [21] 97 % of control | [22] 94 % of control

CCOC(=O)c1ccc(N=Nc2ccc([N+](=O)[O-])cc2)cc1
inactive: [17] 105 % of control | [18] 105 % of control | [19] 112 % of control

N#Cc1ccc(N2CCCc3ccccc32)c([N+](=O)[O-])c1
inactive: [3] 107 % of control | [5] 92 % of control | [7] 91 % of control

CC1SC(N)=NC1=O (configuration not stated)
inactive: [20] 94 % of control | dose: 100.0 mg/kg/injection, schedule: Q04DX003 (ip), vehicle: saline 108 % of control | [21] 100 % of control | dose: 200.0 mg/kg/injection, schedule: Q04DX003 (ip), vehicle: saline 103 % of control | [22] 100 % of control | dose: 400.0 mg/kg/injection, schedule: Q04DX003 (ip), vehicle: saline 93 % of control

O=S(=O)([O-])Sn1c(-c2ccccc2)c[n+]2ccccc12
inactive: dose: 5.0 mg/kg/injection, schedule: Q01DX009 (ip), vehicle: saline 96 % of control | dose: 10.0 mg/kg/injection, schedule: Q01DX001 (ip), vehicle: saline 102 % of control | dose: 10.0 mg/kg/injection, schedule: Q01DX009 (ip), vehicle: saline 101 % of control | dose: 10.0 mg/kg/injection, schedule: Q04DX003 (ip), vehicle: saline 100 % of control | dose: 20.0 mg/kg/injection, schedule: Q01DX001 (ip), vehicle: saline 100 % of control | dose: 20.0 mg/kg/injection, schedule: Q01DX009 (ip), vehicle: saline 120 % of control | dose: 20.0 mg/kg/injection, schedule: Q04DX003 (ip), vehicle: saline 97 % of control | dose: 40.0 mg/kg/injection, schedule: Q01DX001 (ip), vehicle: saline 96 % of control | dose: 40.0 mg/kg/injection, schedule: Q04DX003 (ip), vehicle: saline 106 % of control
